Measurements published in patent US11395828B2, “Spironolactone aqueous compositions” (CMP DEVELOPMENT LLC, priority 2015, dated 2022).
Values after ≈ are worked out from the molar mass of the structure shown.

Experiments:
[1] = added to a standard therapy for adults with severe heart failure; cited from earlier work
[2] = Pramar et al.; cited from earlier work
[3] = reported in Pramar et al.; cited from earlier work
[4] = Dissolution, USP <711>; assay type: physicochemical; conditions: USP <711> dissolution study
Protocol: Dissolution was measured in a manner consistent with USP <711> reporting the amount of dissolved spironolactone as a percent of labeled content with an associated relative standard devision (“RSD”).

[5] = Particle size by laser diffraction; assay type: physicochemical; conditions: spironolactone solid prior to composition manufacture
Protocol: Particle size measurements were performed on spironolactone (prior to composition manufacture) and on the particulate matter present in the compositions described herein by laser diffraction. The reported particle sizes D(v, 0.1), D(v, 0.5), and D(v, 0.9) relate to the mass median diameter (in μm) of the volume of distribution of the given particles. […] Alternatively, particle size can be estimated using optical microscopy.

[6] = sorbic acid and sorbate; cited from earlier work

SMILES | labeled content dissolved at 5-minutes [4] | particle size D(v, 0.5) [5] | particle size D(v, 0.9) [5] | also measured
CC(=O)S[C@@H]1CC2=CC(=O)CC[C@]2(C)[C@H]2CC[C@@]3(C)[C@@H](CC[C@@]34CCC(=O)O4)[C@H]12 [Spironolactone] |  |  |  | reduction in mortality [1]: 30%; pH at which spironolactone exhibits maximum stability [2]: 4.5; aqueous solubility [3]: 28 µg/mL (≈ 67.2 µM)
CC(=O)S[C@@H]1CC2=CC(=O)CC[C@]2(C)[C@H]2CC[C@@]3(C)[C@@H](CC[C@@]34CCC(=O)O4)[C@H]12 [micronized spironolactone, spironolactone] | about 90 % of labeled content | about 3.64 m | about 9.42 m | 
C/C=C/C=C/C(=O)O [sorbic acid] |  |  |  | equilibrium pKa-value [6]: about 4.8
CC(=O)S[C@@H]1CC2=CC(=O)CC[C@]2(C)[C@H]2CC[C@@]3(C)[C@@H](CC[C@@]34CCC(=O)O4)[C@H]12 [unmicronized spironolactone, spironolactone] | about 50 % of labeled content | 18.3 µm | 35.5 µm | particle size D(v, 0.1) [5]: 7.47 µm
